Data from patent US20240238368A1, “PEPTIDE FOR PREVENTING AND TREATING FIBROSIS” (NIBEC CO., LTD., priority 2021, published 2024).

Experiments:
[1] = tested on: bleomycin-induced lung disease; settings: bleomycin mice; for fibrous deposition in the lungs (Sirius Red and hematoxylin/phloxine staining) / area of fibrosis (Sirius Red): day 22; for fibrous deposition in the lungs (Sirius Red and hematoxylin/phloxine staining): peptides 30 mg/kg subcutaneously three times a week compared to NT and nintedanib groups, FIG. 8c; for area of fibrosis (Sirius Red): compared to NT group and nintedanib-treated group, P<0.05, FIG. 8d
Method: C57BL/6J mice (male, 7 weeks old) were purchased from Charles River. Mice were anesthetized by intraperitoneal administration of a mixture of Imalgene (ketamine, 100 mg/kg)/Rompun (xylazine, 20 mg/kg), and a total of 50 μl of bleomycin sulfate (1.45 mg/kg, MBcell, CA, USA) was injected intratracheally once, and saline was injected intratracheally in the normal group (day 0). On day 7, mice were divided into groups, each consisting of eight. PBS (NT), SEQ ID NO: 1 (30 mg/kg), and SEQ ID NO: 2 (30 mg/kg) were administered subcutaneously three times a week, and nintedanib (Fluorochem Ref=050741, 100 mg/kg) was administered orally daily. Each of the peptides of SEQ ID NO: 1 and SEQ ID NO: 2 was administered after dissolution in water for injection, and nintedanib was administered after mixing with water containing 0.5% hydroxyethylcellulose (Sigma; lot BCBV5033) and 0.01% Tween 80 (Sigma; lot BCBR6211V). While administering the drug for 21 days, body weight was measured every 2 days, and whether there were other clinical symptoms were checked.
After mice were sacrificed with isoflurane on day 22, lung tissue was excised therefrom and histological analysis was performed. Paraffin was introduced into the lungs, 5 μm paraffin sections were manufactured, Sirius Red staining and hematoxylin/phloxine staining were performed to evaluate the extent of pulmonary fibrosis and inflammation, and the extent of inflammation and fibrosis was observed through microscopy.
In order to quantify the fibrotic change, the area of the red (fibrotic portion) was quantified in the sample stained with Sirius Red.

[2] = tested on: MET markers (E-cadherin, EpCAM) and EMT markers (N-cadherin, Twist1, Snail1); experiment: Reprogramming effects in cells: MET and EMT marker gene expression (real-time PCR); format: cell-based, human; settings: LX-2 cells, 10 ng/ml TGF-beta1 and 100 μM peptide, 24 hours; FIG. 7
Method: The medium was removed, followed by washing with DPBS (Welgene, LB001-02) and cell lysis using 1 ml of a trizol reagent (Ambion, 15596). 250 μl of chloroform was added thereto, the tube was stirred, and centrifugation was performed at 10,000 rpm for 15 minutes. After removing the aqueous layer using a pipette, 550 μl of isopropanol (Sigma, 19516) was added and shaken gently. After centrifugation at 15,000 rpm for 25 minutes, isopropanol was removed, and 1 ml of 75% ethanol was added thereto. After removal of ethanol and drying in air, the pellets were dissolved in DEPC water (Invitrogen, AM9915G). The concentration of RNA was measured using a Nano Drop (Thermo Scientific, NanoDrop One, AZY1913798).
CDNA was synthesized from the extracted RNA using a Maxima First strand CDNA synthesis kit (Thermo Fisher, K1641) according to the manufacturer's protocol. In addition, real-time PCR was performed using QuantStudio 3 (Applied Biosystems, A28132) according to the manufacturer's protocol. PCR amplification was conducted by repeating 40 cycles at 95° C. for 15 seconds, 60° C. for 50 seconds, and 72° C. for 15 seconds.

[3] = tested on: COL1A2 and COL3A1 gene expression; experiment: Inhibition of collagen gene expression in cells (real-time PCR); format: cell-based, human; settings: IPF patient lung fibroblasts, 10 ng/ml TGF-β1 24 hours, then peptide 200 μM 24 hours; *p<0.05; FIG. 6
Method: The cells were seeded in a 24-well plate and cultured in starvation medium (Dulbecco's modified Eagle medium/F12 without FBS supplemented with 0.1 mM 2-phospho-L-ascorbic acid) for 24 hours. Recombinant Human TGF-β1 Protein (R&D Systems, #240-B-002) was diluted at 20 μg/ml in sterile 4 mM HCl containing 1 mg/ml bovine serum albumin. The cells were cultured for 24 hours in full growth media containing 10 ng/ml TGF-β1. The cells were treated with SEQ ID NO: 1 (200 μM), SEQ ID NO: 2 (200 μM), or nintedanib (10 μM) in fresh medium and cultured for 24 hours. The peptides were dissolved in purified water, nintedanib was dissolved in dimethyl sulfoxide, and the concentration of dimethyl sulfoxide in medium was set to 1%. The medium was removed, followed by washing with DPBS (Welgene, LB001-02) and cell lysis using 1 ml of a trizol reagent (Ambion, 15596). 250 μl of chloroform was added thereto, the tube was stirred, and centrifugation was performed at 10,000 rpm for 15 minutes. After removing the aqueous layer using a pipette, 550 μl of isopropanol (Sigma, 19516) was added and shaken gently. After centrifugation at 15,000 rpm for 25 minutes, isopropanol was removed, and 1 ml of 75% ethanol was added thereto. After removal of ethanol and drying in air, the pellets were dissolved in DEPC water (Invitrogen, AM9915G). The concentration of RNA was measured using a Nano Drop (Thermo Scientific, NanoDrop One, AZY1913798).
CDNA was synthesized from the extracted RNA using a Maxima First strand CDNA synthesis kit (Thermo Fisher, K1641) according to the manufacturer's protocol. In addition, real-time PCR was performed using QuantStudio 3 (Applied Biosystems, A28132) according to the manufacturer's protocol. PCR amplification was conducted by repeating 50 cycles at 95° C. for 30 seconds, 60° C. for 30 seconds, and 72° C. for 30 seconds.

[4] = molecular target: T1, pSmad3 (Homo sapiens, UniProt P84022); experiment: Inhibition of phosphorylation of Smad3 (Western blotting); format: cell-based; settings: LX-2 cells, 10 ng/ml TGF-β1 24 hours, then peptide 10, 100 or 200 μM 24 hours; effect from 10 μM; FIG. 5
T1 construct: LX-2 (Human hepatic stellate cell line, Millipore #SCC064); host or cells: LX-2 human hepatic stellate cell line
Method: (§1) 3×10^6 LX-2 cells were treated with 10 ng/ml TGF-β1 and cultured for 24 hours. The cells were treated with 10, 100, or 200 μM of the peptide of SEQ ID NO: 2 or 10 µM SIS3 (Smad3 inhibitor, Sigma-Aldrich, catalog #566405) in fresh medium and cultured for 24 hours.
(§2) Proteins were lysed using RIPA lysis buffer (25 mM Tris HCl pH 7.6, 150 mM NaCl, 1% NP-40, 1% sodium deoxycholate, 0.1% SDS) containing a protease inhibitor and a phosphatase inhibitor. Proteins were quantified by BCA protein assay, and the expression levels of pSmad2, Smad2, pSmad3, Smad3, TGFβ receptor 1, and GAPDH proteins were determined by Western blotting. For Western blotting, the sample was loaded in the same amount along with a size marker on an 8% SDS PAGE gel, electrophoresed for about 2 hours, and then transferred to a nitrocellulose membrane. The transferred membrane was blocked with 5% skim milk for 1 hour, and allowed to react with primary antibodies at a ratio of 1:1000 overnight. The primary antibodies used were pSmad2 (Cell Signaling, #3108), Smad2 (Cell Signaling, #5339), pSmad3 (Abcam, ab52903), Smad3 (Cell Signaling, #9513), TGFβ receptor1 (Abcam, ab31013), and GAPDH (Cell Signaling, #2118S). […]

[5] = tested on: TGFβ receptor 1; experiment: TGFβ receptor expression level (Western blotting); format: cell-based, human; settings: LX-2 cells, 10 ng/ml TGF-β1 24 hours, then peptide 10, 100 or 200 μM 24 hours; FIG. 5
Method: as §1, §2

[6] = molecular target: T2, pSmad2 (Homo sapiens, UniProt Q15796); experiment: Inhibition of phosphorylation of Smad2 (Western blotting); format: cell-based; settings: LX-2 cells, 10 ng/ml TGF-β1 24 hours, then peptide 10, 100 or 200 μM 24 hours; FIG. 5
T2 construct: LX-2 (Human hepatic stellate cell line, Millipore #SCC064); host or cells: LX-2 human hepatic stellate cell line
Method: as §1, §2

[7] = tested on: methionine-choline-deficient (MCD) diet-induced hepatitis and hepatic fibrosis; experiment: Methionine-choline-deficient diet mouse model (hepatitis and hepatic fibrosis); format: in vivo, C57BL/6J mice; settings: MCD diet mice, peptide 20 mg/kg, 12 administrations at 3-day intervals, compared to NT group or GLP-1 agonist (liraglutide 0.2 mg/kg) group; for NAFLD activity score: FIGS. 9b, 9c; for area of fibrosis (Masson's trichrome-positive area): FIGS. 9d, 9e
Method: Male 6-week-old C57BL/6J mice were used, and divided into a normal diet group, a group not treated after feeding MCD diet, groups injected with the peptide of SEQ ID NO: 1 (20 mg/kg) and the peptide of SEQ ID NO: 2 (20 mg/kg), and a positive control group subcutaneously injected with liraglutide (0.2 mg/kg), which is a type of glucagon-like peptide 1 receptor agonist serving as a hepatitis therapeutic agent. After autonomous feeding of MCD diet for 10 weeks, 8 mice were assigned to each group and a therapeutic agent was administered thereto. Peptide and liraglutide were administered once a day, a total of 12 times at 3-day intervals (FIG. 9a). For all animals, body weight was measured immediately before initiation of administration and twice a week throughout the entire test. After the end of the last administration, the animals was anesthetized by intraperitoneal injection of 300 μl of Avertin, blood was collected from the abdominal vena cava by laparotomy, the liver and spleen were removed therefrom, and the weight of the removed organs was measured. Tissues were fixed in a neutral buffered formalin solution for all animals subjected to necropsy, and paraffin blocks were manufactured and sectioned through tissue processing. The tissue sections thus obtained were subjected to H&E staining. The H&E stained specimens were scored for steatosis, ballooning degeneration, and lobular inflammation (Table 3), and the extent of hepatic inflammation (NAFLD activity score) was measured. The tissue sections manufactured in the same manner as in Example 8-2 were stained with Masson's trichrome, and 100× magnification images were obtained with an optical microscope (BX51, Olympus, GER) at 5 randomly designated different sites among all Masson's trichrome-stained slides (300MI CMOS camera, […]). The blue-stained […] was measured (Image-Pro Plus, Media Cybernetics Inc., UK) and analyzed as a percentage (Masson's trichrome-positive area […]).

[8] = nintedanib 100 mg/kg orally daily
[9] = peptides 30 mg/kg subcutaneously three times a week

T1 sequence (P84022 whole entry): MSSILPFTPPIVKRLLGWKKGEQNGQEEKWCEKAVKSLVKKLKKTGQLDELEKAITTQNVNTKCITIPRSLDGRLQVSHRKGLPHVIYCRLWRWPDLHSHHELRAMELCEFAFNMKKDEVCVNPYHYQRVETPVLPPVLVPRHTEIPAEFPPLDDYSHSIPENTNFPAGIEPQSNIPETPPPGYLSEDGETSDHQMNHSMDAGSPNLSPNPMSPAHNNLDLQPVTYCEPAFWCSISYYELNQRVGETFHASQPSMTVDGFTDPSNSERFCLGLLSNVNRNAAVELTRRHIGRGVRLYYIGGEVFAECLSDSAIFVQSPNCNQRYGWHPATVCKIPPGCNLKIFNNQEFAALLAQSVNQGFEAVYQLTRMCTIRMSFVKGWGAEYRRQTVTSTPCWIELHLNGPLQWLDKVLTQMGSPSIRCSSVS
T2 sequence (Q15796 whole entry): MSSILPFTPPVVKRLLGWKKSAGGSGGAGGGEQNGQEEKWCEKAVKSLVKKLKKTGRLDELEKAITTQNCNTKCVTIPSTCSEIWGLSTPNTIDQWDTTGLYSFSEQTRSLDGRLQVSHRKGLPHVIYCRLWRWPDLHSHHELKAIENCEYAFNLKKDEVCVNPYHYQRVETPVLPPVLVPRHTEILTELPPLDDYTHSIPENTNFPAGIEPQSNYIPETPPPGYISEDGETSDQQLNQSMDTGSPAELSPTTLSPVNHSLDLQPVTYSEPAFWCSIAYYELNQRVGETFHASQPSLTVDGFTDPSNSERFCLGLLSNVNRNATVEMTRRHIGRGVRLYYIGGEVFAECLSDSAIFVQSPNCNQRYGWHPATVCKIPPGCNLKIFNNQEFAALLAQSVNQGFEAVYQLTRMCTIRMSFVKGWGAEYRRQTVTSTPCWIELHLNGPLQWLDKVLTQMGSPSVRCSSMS

Row | Molecule | change in body weight after treatment ([1]; day 0 to day 22, treatment from day 7, peptides 30 mg/kg subcutaneously three times a week, nintedanib 100 mg/kg orally daily, FIG. 8b) | fibrous deposition in the lungs (Sirius Red and hematoxylin/phloxine staining) [1, 8] | gene expression of E-cadherin (MET marker) [2] | gene expression of EpCAM (MET marker) [2] | gene expression of N-cadherin (EMT marker) [2] | gene expression of Snail1 (EMT marker) [2] | gene expression of Twist1 (EMT marker) [2] | COL1A2 gene expression [3] | COL3A1 gene expression [3] | expression of pSmad3 [4] | expression level of the TGFβ receptor [5] | area of fibrosis (Sirius Red) [1, 9] | expression of pSmad2 [6] | NAFLD activity score [7] | area of fibrosis (Masson's trichrome-positive area) [7]
1 | COC(=O)c1ccc2c(c1)NC(=O)/C2=C(\Nc1ccc(N(C)C(=O)CN2CCN(C)CC2)cc1)c1ccccc1 [nintedanib, reference compound] | increased | some therapeutic effect, but a lot of deposited fibrous tissue was still observed | – | – | – | – | – | – | – | – | – | – | – | – | –
2 | GKCSTRGRKSSRRKK [SEQ ID NO: 2] | – | significantly reduce fibrosis | increased | increased | decreased | decreased | decreased | significantly reduced | significantly reduced | completely disappeared | no change | significant reduction | decreased with an increase in the concentration | significantly reduced | significantly reduce
3 | YGLRSKSKKFRRPDIQYPDAT [SEQ ID NO: 1] | – | significantly reduce fibrosis | – | – | – | – | – | significantly reduced | significantly reduced | – | – | significant reduction | – | significantly reduced | significantly reduce
